T/C data for 14 molecules are collected here from PubChem BioAssay AID220 (DTP/NCI, 2004).

Records with an inconclusive call do not appear.

This assay has as its system CD8F1 mice, subcutaneous mammary adenocarcinoma, T/C%. The assay can be described thus: NCI In Vivo Anticancer Drug Screen. Data for tumor model Mammary Adenocarcinoma CD8F1 (subcutaneous) in CD8F1. Particulars: higher = larger tumour. In outline: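 Compound-treated versus vehicle-treated mice with transplantable tumors; survival or tumor size compared as T/C.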
[1] abbreviates: endpoint: median tumor weight (est.), dose: 12.5 mg/kg/injection, schedule: Q07DX005 (ip), vehicle: saline with Tween-80.
Where [2] appears, read: endpoint: median tumor weight (est.), dose: 25.0 mg/kg/injection, schedule: Q07DX005 (ip), vehicle: saline with Tween-80.
Setting [3] is: endpoint: median tumor weight (est.), dose: 50.0 mg/kg/injection, schedule: Q07DX005 (ip), vehicle: saline with Tween-80.
Setting [4] is: endpoint: median tumor weight (est.), dose: 100.0 mg/kg/injection, schedule: Q07DX005 (ip), vehicle: saline with Tween-80.
[5] abbreviates: endpoint: median tumor weight (est.), dose: 200.0 mg/kg/injection, schedule: Q07DX005 (ip), vehicle: saline with Tween-80.
[6] abbreviates: endpoint: median tumor weight (est.), dose: 400.0 mg/kg/injection, schedule: Q07DX005 (ip), vehicle: saline with Tween-80.
Where [7] appears, read: endpoint: median tumor weight (est.), dose: 25.0 mg/kg/injection, schedule: Q07DX005 (ip), vehicle: saline.
Where [8] appears, read: endpoint: median tumor weight (est.), dose: 50.0 mg/kg/injection, schedule: Q07DX005 (ip), vehicle: saline.
The mark [9] stands for this setting: endpoint: median tumor weight (est.), dose: 100.0 mg/kg/injection, schedule: Q07DX005 (ip), vehicle: saline.
[10] abbreviates: endpoint: median tumor weight (est.), dose: 200.0 mg/kg/injection, schedule: Q07DX005 (ip), vehicle: saline.
Where [11] appears, read: endpoint: median tumor weight change, dose: 62.5 mg/kg/injection, schedule: Q01DX001 (ip), vehicle: saline with Tween-80.
Setting [12] is: endpoint: median tumor weight change, dose: 125.0 mg/kg/injection, schedule: Q01DX001 (ip), vehicle: saline with Tween-80.

For the molecule `COC1=C(OC)C(=O)C(C/C=C(\C)CC/C=C(\C)CC/C=C(\C)CC/C=C(\C)CC/C=C(\C)CC/C=C(\C)CC/C=C(\C)CC/C=C(\C)CC/C=C(\C)CCC=C(C)C)=C(C)C1=O`, the T/C under setting [1] is 59 % of control; the T/C under setting [2] was 67 % of control; the T/C under setting [3] is 47 % of control; the T/C under setting [4] was 93 % of control; the T/C under setting [5] is 122 % of control; the T/C under setting [6] is 76 % of control.
Take `CCCC(=O)Nc1ncnc2c1ncn2C1OC2COP(=O)(O)OC2C1OC(=O)CCC` (stereo not drawn): the T/C runs as follows: (endpoint: mean tumor weight, dose: 50.0 mg/kg/injection, schedule: Q01DX009 (ip), vehicle: saline) 100 % of control; (endpoint: mean tumor weight, dose: 100.0 mg/kg/injection, schedule: Q07DX007 (ip), vehicle: saline) 117 % of control; (endpoint: mean tumor weight, dose: 200.0 mg/kg/injection, schedule: Q01DX009 (ip), vehicle: saline) 111 % of control; (endpoint: mean tumor weight, dose: 200.0 mg/kg/injection, schedule: Q07DX007 (ip), vehicle: saline) 78 % of control; (endpoint: mean tumor weight, dose: 400.0 mg/kg/injection, schedule: Q01DX009 (ip), vehicle: saline) 55 % of control; (endpoint: mean tumor weight, dose: 400.0 mg/kg/injection, schedule: Q07DX007 (ip), vehicle: saline) 43 % of control. Also, the T/C under setting [7] is 75 % of control; the T/C under setting [8] was 114 % of control; the T/C under setting [9] was 122 % of control; the T/C under setting [10] was 77 % of control; the T/C (endpoint: median tumor weight (est.), dose: 400.0 mg/kg/injection, schedule: Q07DX005 (ip), vehicle: saline) was 83 % of control; the T/C (endpoint: median tumor weight (est.), dose: 800.0 mg/kg/injection, schedule: Q07DX005 (ip), vehicle: saline) was 72 % of control.
Regarding `C=CCNc1nc2c(s1)CCc1cc(OC)c(OC)cc1-2`, the T/C under setting [1] is 65 % of control; the T/C under setting [2] was 44 % of control; the T/C under setting [3] was 55 % of control; the T/C under setting [4] was 74 % of control; the T/C under setting [5] is 81 % of control.
Consider `CCc1nc(N)nc(N)c1-c1ccc(Cl)c(N=[N+]=[N-])c1`, for which the T/C by setting is: under setting [11], 57 % of control; under setting [12], 78 % of control; (endpoint: median tumor weight change, dose: 2000.0 mg/kg/injection, schedule: Q01DX001 (ip), vehicle: saline with Tween-80) 24 % of control.
Consider `C(COCCOCC1CO1)OCCOCC1CO1` (stereo not drawn), for which the T/C was 69 % of control under setting [1]; 91 % of control under setting [2]; 68 % of control under setting [3]; 110 % of control under setting [4]; 112 % of control under setting [6].
In the case of `COc1ccc(C(=O)C(CN(C)C)CN(C)C)cc1`, the T/C is 103 % of control (endpoint: median tumor weight change, dose: 7.81 mg/kg/injection, schedule: Q01DX001 (ip), vehicle: saline); 88 % of control (endpoint: median tumor weight change, dose: 15.62 mg/kg/injection, schedule: Q01DX001 (ip), vehicle: saline); 84 % of control (endpoint: median tumor weight change, dose: 31.25 mg/kg/injection, schedule: Q01DX001 (ip), vehicle: saline).
With `CC1=CC(=NN=c2cc(C)n([O-])c(C)c2)C=C(C)[N+]1=O`, the T/C is, setting by setting: (endpoint: median tumor weight change, dose: 100.0 mg/kg/injection, schedule: Q01DX001 (ip), vehicle: suspension in saline) 76 % of control; under setting [12], 118 % of control; (endpoint: median tumor weight change, dose: 125.0 mg/kg/injection, schedule: Q01DX001 (ip), vehicle: saline) 55 % of control; (endpoint: median tumor weight change, dose: 200.0 mg/kg/injection, schedule: Q01DX001 (ip), vehicle: suspension in saline) 85 % of control; (endpoint: median tumor weight change, dose: 250.0 mg/kg/injection, schedule: Q01DX001 (ip), vehicle: saline) 117 % of control; (endpoint: median tumor weight change, dose: 400.0 mg/kg/injection, schedule: Q01DX001 (ip), vehicle: suspension in saline) 80 % of control. For the same molecule, the T/C reads like this: (endpoint: median tumor weight change, dose: 500.0 mg/kg/injection, schedule: Q01DX001 (ip), vehicle: saline with Tween-80) 94 % of control; (endpoint: median tumor weight change, dose: 500.0 mg/kg/injection, schedule: Q01DX001 (ip), vehicle: saline) 100 % of control; (endpoint: median tumor weight change, dose: 800.0 mg/kg/injection, schedule: Q01DX001 (ip), vehicle: suspension in saline) 40 % of control; (endpoint: median tumor weight change, dose: 1000.0 mg/kg/injection, schedule: Q01DX001 (ip), vehicle: saline) 17 % of control.
As for `CC[C@H]1CN2CCc3cc(OC)c(OC)cc3[C@@H]2C[C@@H]1C[C@H]1NCCc2cc(OC)c(OC)cc21`, the T/C (endpoint: mean tumor weight, dose: 0.88 mg/kg/injection, schedule: Q07DX006 (ip), vehicle: saline) is 46 % of control; the T/C (endpoint: mean tumor weight, dose: 1.75 mg/kg/injection, schedule: Q07DX005 (ip), vehicle: saline) was 163 % of control; the T/C (endpoint: mean tumor weight, dose: 1.75 mg/kg/injection, schedule: Q07DX006 (ip), vehicle: saline) was 65 % of control; the T/C (endpoint: mean tumor weight, dose: 3.5 mg/kg/injection, schedule: Q07DX005 (ip), vehicle: saline) is 258 % of control; the T/C (endpoint: mean tumor weight, dose: 3.5 mg/kg/injection, schedule: Q07DX006 (ip), vehicle: saline) was 42 % of control; the T/C (endpoint: mean tumor weight, dose: 7.0 mg/kg/injection, schedule: Q07DX005 (ip), vehicle: saline) was 153 % of control. Moreover, the T/C was 73 % of control (endpoint: mean tumor weight, dose: 7.0 mg/kg/injection, schedule: Q07DX006 (ip), vehicle: saline); 156 % of control (endpoint: mean tumor weight, dose: 14.0 mg/kg/injection, schedule: Q07DX005 (ip), vehicle: saline); 96 % of control (endpoint: mean tumor weight, dose: 14.0 mg/kg/injection, schedule: Q07DX006 (ip), vehicle: saline); 214 % of control (endpoint: median tumor weight (est.), dose: 1.75 mg/kg/injection, schedule: Q07DX005 (ip), vehicle: saline); 166 % of control (endpoint: median tumor weight (est.), dose: 3.5 mg/kg/injection, schedule: Q07DX005 (ip), vehicle: saline); 92 % of control (endpoint: median tumor weight (est.), dose: 7.0 mg/kg/injection, schedule: Q07DX005 (ip), vehicle: saline). For the same molecule, where the note is “endpoint: median tumor weight (est.), dose: 28.0 mg/kg/injection, schedule: Q07DX005 (ip), vehicle: saline”, the T/C was 86 % of control.
`C/C=C(\C)C(=O)OC1C(C)C2(O)C(C=C(CO)CC3(O)C(=O)C(C)=CC32)C2C(C)(C)C12OC(=O)CCCCCCCCC` (stereo not drawn): the T/C is 91 % of control (endpoint: median tumor weight (est.), dose: 0.06 mg/kg/injection, schedule: Q07DX005 (ip), vehicle: saline + alcohol); 76 % of control (endpoint: median tumor weight (est.), dose: 0.12 mg/kg/injection, schedule: Q07DX005 (ip), vehicle: saline + alcohol); 92 % of control (endpoint: median tumor weight (est.), dose: 0.25 mg/kg/injection, schedule: Q07DX005 (ip), vehicle: saline + alcohol).
Consider `CC(=O)OC1=NC(C)c2c1cc(OC(C)=O)[nH]c2=O` (stereo not drawn), for which the T/C reads like this: (endpoint: median tumor weight (est.), dose: 12.5 mg/kg/injection, schedule: Q07DX005 (ip), vehicle: Klucel (hydroxypropylcellulose) (HPC)) 86 % of control; (endpoint: median tumor weight (est.), dose: 25.0 mg/kg/injection, schedule: Q07DX005 (ip), vehicle: Klucel (hydroxypropylcellulose) (HPC)) 168 % of control; (endpoint: median tumor weight (est.), dose: 50.0 mg/kg/injection, schedule: Q07DX005 (ip), vehicle: Klucel (hydroxypropylcellulose) (HPC)) 111 % of control.
For `COc1ccc(C[C@H](N)C(=O)NC2C(CO)OC(n3cnc4c(N(C)C)ncnc43)C2O)cc1` (stereo partly drawn), the T/C is 90 % of control (endpoint: median tumor weight (est.), dose: 48.0 mg/kg/injection, schedule: Q07DX005 (ip), vehicle: saline); 63 % of control (endpoint: median tumor weight (est.), dose: 96.0 mg/kg/injection, schedule: Q07DX005 (ip), vehicle: saline); 62 % of control (endpoint: median tumor weight (est.), dose: 192.0 mg/kg/injection, schedule: Q07DX005 (ip), vehicle: saline); 16 % of control (endpoint: median tumor weight (est.), dose: 384.0 mg/kg/injection, schedule: Q07DX005 (ip), vehicle: saline).
Regarding `O=C(CC(=O)C(F)(F)F)c1csc2ccccc12`, the T/C (endpoint: median tumor weight change, dose: 31.25 mg/kg/injection, schedule: Q01DX001 (ip), vehicle: Klucel (hydroxypropylcellulose) (HPC)) was 35 % of control; the T/C (endpoint: median tumor weight change, dose: 62.5 mg/kg/injection, schedule: Q01DX001 (ip), vehicle: Klucel (hydroxypropylcellulose) (HPC)) is 39 % of control; the T/C (endpoint: median tumor weight change, dose: 125.0 mg/kg/injection, schedule: Q01DX001 (ip), vehicle: Klucel (hydroxypropylcellulose) (HPC)) was 65 % of control.
As for `O=C1C=CN(C2OC(CO)C(O)C2O)C(=O)C1` (stereo not drawn), the T/C (endpoint: median tumor weight (est.), dose: 12.5 mg/kg/injection, schedule: Q07DX005 (ip), vehicle: saline) is 97 % of control; the T/C under setting [7] was 99 % of control; the T/C under setting [8] was 101 % of control; the T/C under setting [9] is 120 % of control; the T/C under setting [10] was 78 % of control.
With `CCCCOCN(COCCCC)C12CC3CC(CC(C3)C1)C2`, the T/C is 122 % of control under setting [11]; 79 % of control under setting [12]; 61 % of control (endpoint: median tumor weight change, dose: 250.0 mg/kg/injection, schedule: Q01DX001 (ip), vehicle: saline with Tween-80).
